Data on 3 molecules can be found in patent US20050070511A1, “2-methylene-19-nor-vitamin D2 compounds” (Wisconsin Alumni Research Foundation, priority 2003, published 2005).

Assay [1] concerns Male, weanling Sprague-Dawley rats. Briefly: Intestinal calcium transport in vitamin D-deficient rats. The assay is classed as in vivo, rat. The note with it: for Intestinal Calcium Transport (S/M): rats on low Ca diet, i.p. daily, average ± SE from 5 animals; for Activity in stimulating intestinal calcium transport compared with 1α,25-dihydroxyvitamin D3: FIG. 3, in words. The method, then: (§1) Male, weanling Sprague-Dawley rats were placed on Diet 11 (0.47% Ca)+AEK for 11 days, followed by Diet 11 (0.02% Ca)+AEK for 31 days. Dosing (i.p.) began 7 days prior to sacrifice. Doses were given on a daily basis, 24 hours apart. The first 10 cm of the intestine was collected for gut transport studies and serum was collected for bone Ca mobilization analysis. The results are reported in TABLE 1 and illustrated in the graph of FIGS. 3 and 4.

Assay [2] shares this test system. Put plainly: Serum calcium (bone calcium mobilization) in vitamin D-deficient rats. The format is in vivo, rat. The note with it: for Serum Calcium (bone calcium mobilization): rats on low Ca diet, i.p. daily, average ± SE from 5 animals; for Mobilization of calcium from bone compared with 1α,25-dihydroxyvitamin D3: FIG. 4, in words. The protocol:
as §1
The in vivo tests of serum calcium of rats on a zero calcium diet provides an insight into […] or bone activity of the 2-methylene-24(S) and 24(R) derivatives of 19-nor-1α,25-dihydroxyvitamin D2. […] At the same time, the activity of the 2-methylene-24(S) and 24(R) derivatives of 19-nor-1α,25-dihydroxyvitamin D2 on intestinal calcium transport is approximately equal to that of 1,25-(OH)2D3 (FIG. 3).

Assay [3] addresses T1, vitamin D pig intestinal nuclear receptor (Sus scrofa, UniProt A3RGC1).
T1 construct: the vitamin D pig intestinal nuclear receptor; from tissue; host or cells: pig intestine (nuclear receptor preparation)
T1 sequence (A3RGC1 1-427): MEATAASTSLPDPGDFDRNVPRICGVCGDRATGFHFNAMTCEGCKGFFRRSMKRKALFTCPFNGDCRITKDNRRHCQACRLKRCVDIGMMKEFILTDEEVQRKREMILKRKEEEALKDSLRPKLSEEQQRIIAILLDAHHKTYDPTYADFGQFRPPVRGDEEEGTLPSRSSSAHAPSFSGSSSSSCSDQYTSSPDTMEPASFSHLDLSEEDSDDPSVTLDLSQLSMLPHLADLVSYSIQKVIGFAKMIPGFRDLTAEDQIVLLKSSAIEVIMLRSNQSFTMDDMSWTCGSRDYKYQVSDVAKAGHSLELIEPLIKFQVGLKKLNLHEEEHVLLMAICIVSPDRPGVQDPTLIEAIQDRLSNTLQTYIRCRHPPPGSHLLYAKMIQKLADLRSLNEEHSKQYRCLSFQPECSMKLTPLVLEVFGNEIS
Put plainly: Competitive binding of [3H]-1α,25-(OH)2-D3 to the porcine intestinal vitamin D receptor. The note with it: FIG. 1, in words. The method, then:
FIG. 1 is a graph illustrating the relative activity of 2-methylene-19-nor-24(S)-20(R)-1α,25-dihydroxyvitamin D2, 2-methylene-19-nor-24(R)-20(R)-1α,25-dihydroxyvitamin D2 and 1α,25-dihydroxyvitamin D3 to compete for binding of [^3H]-1α,25-(OH)2-D3 to the vitamin D pig intestinal nuclear receptor.
Competitive binding of the analogs to the porcine intestinal receptor was carried out by the method described by Dame et al. (Biochemistry 25, 4523-4534, 1986).

Assay [4] has as its system HL-60 cells. Put plainly: Differentiation of HL-60 promyelocytes into monocytes. The settings on record: FIG. 2, in words. The assay is classed as cell-based. The protocol:
FIG. 2 is a graph illustrating the percent HL-60 cell differentiation as a function of the concentration of 2-methylene-19-nor-24(S)-20(R)-1α,25-dihydroxyvitamin D2, 2-methylene-19-nor-24(R)-20(R)-1α,25-dihydroxyvitamin D2, and 1α,25-dihydroxyvitamin D3.
The differentiation of HL-60 promyelocytic into monocytes was determined as described by Ostrem et al. (J. Biol. Chem. 262, 14164-14171, 1987).

Regarding `C=C1/C(=C\C=C2/CCC[C@]3(C)[C@@H]([C@H](C)CCCC(C)(C)O)CC[C@@H]23)C[C@@H](O)C[C@@H]1O` [1,25-(OH)2D3, 1α,25-dihydroxyvitamin D3, reference compound], the “Intestinal Calcium Transport (S/M)” value in assay [1] (260 pmol/day/7 days) came to 12.54 ± 1.83 S/M. For the same molecule, in assay [2] (260 pmol/day/7 days), the “Serum Calcium (bone calcium mobilization)” value (“Serum Calcium” below) is 5.72 ± 0.14 mg/100 mL.

For `C=C1[C@H](O)CC(=C/C=C2\CCC[C@@]3(C)C2CCC3[C@H](C)/C=C/[C@@H](C)C(C)(C)O)C[C@H]1O` (stereo partly drawn) [(20R,24R)D2, (20R,24R)-1α,25-dihydroxy-2-methylene-19-nor-vitamin D2], the “Binding to the vitamin D receptor compared with 1,25(OH)2D3” value in assay [3] is recorded as “more active than 1,25(OH)2D3”. In addition, the “HL-60 differentiation potency compared with 1,25(OH)2D3” value in assay [4] was “significantly more potent than 1,25(OH)2D3”. The “Activity in stimulating intestinal calcium transport compared with 1α,25-dihydroxyvitamin D3” value in assay [1] is “activity about the same as that of 1α,25-dihydroxyvitamin D3”. The “Intestinal Calcium Transport (S/M)” value is on record as 12.2 ± 1.22 S/M in assay [1] (130 pmol/day/7 days) and 11.58 ± 0.66 S/M in assay [1] (260 pmol/day/7 days). Moreover, the “Mobilization of calcium from bone compared with 1α,25-dihydroxyvitamin D3” value in assay [2] was “minimal activity on bone”. Also, the entries for the “Serum Calcium” value in assay [2] (130 pmol/day/7 days) and in assay [2] (260 pmol/day/7 days) were 4.5 ± 0.05 mg/100 mL and 5.02 ± 0.14 mg/100 mL, respectively.

Turning to `C=C1[C@H](O)CC(=C/C=C2\CCC[C@@]3(C)C2CCC3[C@H](C)/C=C/[C@H](C)C(C)(C)O)C[C@H]1O` (stereo partly drawn) [(20R,24S)D2, (20R,24S)-1α,25-dihydroxy-2-methylene-19-nor-vitamin D2], in assay [3], the “Binding to the vitamin D receptor compared with 1,25(OH)2D3” value is given as “more active than 1,25(OH)2D3”. For the same molecule, in assay [4], the “HL-60 differentiation potency compared with 1,25(OH)2D3” value is given as “significantly more potent than 1,25(OH)2D3”. The “Activity in stimulating intestinal calcium transport compared with 1α,25-dihydroxyvitamin D3” value in assay [1] was “activity about the same as that of 1α,25-dihydroxyvitamin D3”. The figures for the “Intestinal Calcium Transport (S/M)” value in assay [1] (130 pmol/day/7 days) and in assay [1] (260 pmol/day/7 days) were 11.62 ± 0.69 S/M and 11.14 ± 0.74 S/M, respectively. Also, the “Mobilization of calcium from bone compared with 1α,25-dihydroxyvitamin D3” value in assay [2] is given as “minimal activity on bone”. Besides, the figures for the “Serum Calcium” value in assay [2] (130 pmol/day/7 days) and in assay [2] (260 pmol/day/7 days) were 4.7 ± 0.13 mg/100 mL and 5.04 ± 0.14 mg/100 mL, respectively.
